Experimental data from ChEMBL document CHEMBL3421538, “Structure-activity relationships and molecular studies of novel arylpiperazinylalkyl purine-2,4-diones and purine-2,4,8-triones with antidepressant and anxiolytic-like activity” (Eur J Med Chem, 2015).
The source made the active and inactive calls. The calls are words filed in the database; no cut-off is given here.

Experiments:
D(2) dopamine receptor [1] = molecular target: T1, D(2) dopamine receptor (Homo sapiens, UniProt P14416); assay: Displacement of [3H]N-methylspiperone from human recombinant dopamine D2 receptor expressed in CHOK1 cells incubated for 60 mins by microbeta plate reader based method; assay type: cell-based, CHO-K1
D(2) dopamine receptor [2] = molecular target: T1, D(2) dopamine receptor; assay: Antagonist activity against human dopamine D2L receptor expressed in HEK293 cells assessed as inhibition of […]-induced cAMP levels at 0.1 uM; assay type: functional, cell-based
Mus musculus [3] = assay: Antidepressant-like activity in Swiss mouse assessed as reduction in immobility time at 0.625 to 5 mg/kg, ip administered 60 mins before test; assay type: functional, organism-based
D(2) dopamine receptor [4] = molecular target: T1, D(2) dopamine receptor; assay: Antagonist activity against human dopamine D2L receptor expressed in HEK293 cells assessed as inhibition of […]-induced cAMP levels at 1 uM; assay type: functional, cell-based
[5] = molecular target: T2, 5-hydroxytryptamine receptor 7 (Homo sapiens, UniProt P34969); assay: Antagonist activity against human 5-HT7 receptor expressed in HEK293 cells assessed as inhibition of 5-HT-induced cAMP levels at 1 uM; assay type: functional, cell-based
Mus musculus [6] = assay: Antidepressant-like activity in ip dosed Swiss mouse assessed as reduction in immobility time administered 60 mins before test; assay type: functional; details: read-out: MED
[7] = molecular target: T3, 5-hydroxytryptamine receptor 1A (Homo sapiens) (UniProt P08908); assay: Agonist activity at human 5-HT1A receptor expressed in HEK293 cells assessed as stimulation of cAMP levels at 0.1 uM relative to 8-OH-DPAT; assay type: functional, cell-based
T3 sequence (whole entry): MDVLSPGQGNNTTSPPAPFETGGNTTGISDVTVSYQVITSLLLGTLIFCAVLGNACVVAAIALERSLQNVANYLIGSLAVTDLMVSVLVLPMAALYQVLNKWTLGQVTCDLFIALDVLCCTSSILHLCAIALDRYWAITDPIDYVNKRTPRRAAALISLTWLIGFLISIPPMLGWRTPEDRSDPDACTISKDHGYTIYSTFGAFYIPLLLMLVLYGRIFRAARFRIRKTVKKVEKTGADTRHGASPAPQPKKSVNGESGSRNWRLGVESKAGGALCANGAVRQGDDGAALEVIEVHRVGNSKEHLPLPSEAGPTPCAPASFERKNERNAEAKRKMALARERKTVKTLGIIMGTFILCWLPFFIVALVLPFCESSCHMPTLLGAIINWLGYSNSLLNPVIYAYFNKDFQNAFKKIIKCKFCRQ

Mus musculus [8] = assay: Potency index, ratio of MED for imipramine to MED for compound for antidepressant-like activity in ip dosed Swiss mouse; assay type: functional
[9] = molecular target: T2, 5-hydroxytryptamine receptor 7; assay: Agonist activity at human 5-HT7 receptor expressed in HEK293 cells assessed as stimulation of cAMP levels at 1 uM relative to 5HT; assay type: functional, cell-based
D(2) dopamine receptor [10] = molecular target: T1, D(2) dopamine receptor; assay: Agonist activity at human D2L receptor expressed in HEK293 cells assessed as stimulation of cAMP levels at 0.1 uM relative to dopamine; assay type: functional, cell-based
Mus musculus [11] = assay: Toxicity in Swiss mouse assessed as spontaneous locomotor activity at 0.625 to 5 mg/kg, ip measured during 2 to 6 mins; assay type: organism-based; set-up: route intraperitoneal; details: in vivo
[12] = molecular target: T4, 5-hydroxytryptamine receptor 1A (Rattus norvegicus, UniProt P19327); assay: Displacement of [3H]8-OH-DPAT from rat hippocampus 5-HT1A receptor incubated for 20 mins by microbeta plate reader based method
T4 sequence (P19327 whole entry): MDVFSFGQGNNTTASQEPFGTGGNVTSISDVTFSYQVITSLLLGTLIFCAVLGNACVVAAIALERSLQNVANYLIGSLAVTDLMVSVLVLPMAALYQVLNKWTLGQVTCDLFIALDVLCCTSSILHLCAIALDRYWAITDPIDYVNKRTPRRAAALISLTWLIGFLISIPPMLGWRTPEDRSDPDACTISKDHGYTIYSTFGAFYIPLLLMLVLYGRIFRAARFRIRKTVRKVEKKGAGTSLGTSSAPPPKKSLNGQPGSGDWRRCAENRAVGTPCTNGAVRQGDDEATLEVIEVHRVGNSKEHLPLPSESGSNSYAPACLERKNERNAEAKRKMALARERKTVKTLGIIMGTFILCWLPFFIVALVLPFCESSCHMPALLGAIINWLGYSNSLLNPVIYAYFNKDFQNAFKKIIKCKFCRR

[13] = molecular target: T3, 5-hydroxytryptamine receptor 1A (Homo sapiens); assay: Antagonist activity against human 5-HT1A receptor expressed in HEK293 cells assessed as inhibition of […]-induced cAMP levels at 1 uM; assay type: functional, cell-based
[14] = molecular target: T2, 5-hydroxytryptamine receptor 7; assay: Displacement of [3H]LSD from human recombinant 5-HT7 receptor expressed in CHOK1 cells incubated for 60 mins by microbeta plate reader based method; assay type: cell-based, CHO-K1
[15] = Selectivity index, ratio of Ki for rat hippocampus 5-HT1A receptor to Ki for human recombinant 5-HT7 receptor
D(2) dopamine receptor [16] = molecular target: T1, D(2) dopamine receptor; assay: Agonist activity at human D2L receptor expressed in HEK293 cells assessed as stimulation of cAMP levels at 1 uM relative to dopamine; assay type: functional, cell-based
[17] = molecular target: T3, 5-hydroxytryptamine receptor 1A (Homo sapiens); assay: Antagonist activity against human 5-HT1A receptor expressed in HEK293 cells assessed as inhibition of […]-induced cAMP levels at 0.1 uM; assay type: functional, cell-based
[18] = molecular target: T2, 5-hydroxytryptamine receptor 7; assay: Agonist activity at human 5-HT7 receptor expressed in HEK293 cells assessed as stimulation of cAMP levels at 0.1 uM relative to 5HT; assay type: functional, cell-based
[19] = molecular target: T2, 5-hydroxytryptamine receptor 7; assay: Antagonist activity against human 5-HT7 receptor expressed in HEK293 cells assessed as inhibition of 5-HT-induced cAMP levels at 0.1 uM; assay type: functional, cell-based
Mus musculus [20] = assay: Antidepressant-like activity in Swiss mouse assessed as reduction in immobility time at 1.25 mg/kg, ip administered 60 mins before test; assay type: functional; set-up: scale not given: the % may be the effect or the level left; details: route intraperitoneal
[21] = molecular target: T5, 5-hydroxytryptamine receptor 6 (Homo sapiens, UniProt P50406); assay: Displacement of [3H]LSD from human recombinant 5-HT6 receptor expressed in HEK293 cells incubated for 60 mins by microbeta plate reader based method; assay type: cell-based
[22] = molecular target: T3, 5-hydroxytryptamine receptor 1A (Homo sapiens); assay: Agonist activity at human 5-HT1A receptor expressed in HEK293 cells assessed as stimulation of cAMP levels at 1 uM relative to 8-OH-DPAT; assay type: functional, cell-based
Mus musculus [23] = assay: Anxiolytic-like activity in Swiss mouse assessed as increase in number of punished crossings measured during 60 seconds period at 1.25 to 5 mg/kg, ip by four-plate test; assay type: functional, organism-based
Mus musculus [24] = assay: Anxiolytic-like activity in Swiss mouse assessed as increase in number of punished crossings measured during 60 seconds period at 5 to 20 mg/kg, ip by four-plate test; assay type: functional, organism-based
[25] = molecular target: D(3) dopamine receptor (Homo sapiens) (UniProt P35462); assay: Displacement of [3H]N-methylspiperone from dopamine D3 receptor (unknown origin) assessed as total radioligand binding at 1 uM incubated for 60 mins by microbeta plate reader based method
Mus musculus [26] = assay: Antidepressant-like activity in Swiss mouse assessed as reduction in immobility time at 10 mg/kg, ip administered 60 mins before test; assay type: functional; set-up: scale not given: the % may be the effect or the level left; details: route intraperitoneal
[27] = molecular target: T6, 5-hydroxytryptamine receptor 1A (Rattus norvegicus) (UniProt P19327); assay: Displacement of [3H]8-OH-DPAT from rat hippocampus 5-HT1A receptor assessed as total radioligand binding at 1 uM incubated for 20 mins by microbeta plate reader based method
T6 sequence (whole entry): T4 sequence (P19327 whole entry)

[28] = molecular target: T5, 5-hydroxytryptamine receptor 6; assay: Displacement of [3H]LSD from human recombinant 5-HT6 receptor expressed in HEK293 cells assessed as total radioligand binding at 1 uM incubated for 60 mins by microbeta plate reader based method; assay type: cell-based
[29] = molecular target: T6, 5-hydroxytryptamine receptor 1A (Rattus norvegicus); assay: Displacement of [3H]8-OH-DPAT from rat hippocampus 5-HT1A receptor assessed as total radioligand binding at 1.66 x 10^-7 M incubated for 20 mins by microbeta plate reader based method
[30] = molecular target: D(3) dopamine receptor (Homo sapiens) (UniProt P35462); assay: Displacement of [3H]N-methylspiperone from dopamine D3 receptor (unknown origin) assessed as total radioligand binding at 1.66 x 10^-7 M incubated for 60 mins by microbeta plate reader based method
Mus musculus [31] = assay: Toxicity in Swiss mouse assessed as spontaneous locomotor activity at 2.5 to 20 mg/kg, ip measured during 2 to 6 mins; assay type: organism-based; set-up: route intraperitoneal; details: in vivo
[32] = molecular target: T5, 5-hydroxytryptamine receptor 6; assay: Displacement of [3H]LSD from human recombinant 5-HT6 receptor expressed in HEK293 cells assessed as total radioligand binding at 1.66 x 10^-7 M incubated for 60 mins by microbeta plate reader based method; assay type: cell-based
Mus musculus [33] = assay: Antidepressant-like activity in Swiss mouse assessed as reduction in immobility time at 2.5 to 20 mg/kg, ip administered 60 mins before test; assay type: functional, organism-based
Mus musculus [34] = assay: Anxiolytic-like activity in Swiss mouse assessed as increase in number of punished crossings measured during 60 seconds period at 0.625 to 10 mg/kg, ip by four-plate test; assay type: functional, organism-based
Mus musculus [35] = assay: Toxicity in Swiss mouse assessed as spontaneous locomotor activity at 0.625 to 10 mg/kg, ip; assay type: organism-based; set-up: dose 0.625-10 mg/kg, route intraperitoneal; details: in vivo
Mus musculus [36] = assay: Antidepressant-like activity in Swiss mouse assessed as reduction in immobility time at 2.5 to 10 mg/kg, ip administered 60 mins before test; assay type: functional, organism-based
Mus musculus [37] = assay: Anxiolytic-like activity in Swiss mouse assessed as increase in number of punished crossings measured during 60 seconds period at 2.5 mg/kg, ip by four-plate test; assay type: functional; details: route intraperitoneal
Mus musculus [38] = assay: Toxicity in Swiss mouse assessed as spontaneous locomotor activity at 2.5 to 10 mg/kg, ip measured during 2 to 6 mins; assay type: organism-based; set-up: route intraperitoneal; details: in vivo

Sequence of D(3) dopamine receptor (Homo sapiens) (P35462 whole entry): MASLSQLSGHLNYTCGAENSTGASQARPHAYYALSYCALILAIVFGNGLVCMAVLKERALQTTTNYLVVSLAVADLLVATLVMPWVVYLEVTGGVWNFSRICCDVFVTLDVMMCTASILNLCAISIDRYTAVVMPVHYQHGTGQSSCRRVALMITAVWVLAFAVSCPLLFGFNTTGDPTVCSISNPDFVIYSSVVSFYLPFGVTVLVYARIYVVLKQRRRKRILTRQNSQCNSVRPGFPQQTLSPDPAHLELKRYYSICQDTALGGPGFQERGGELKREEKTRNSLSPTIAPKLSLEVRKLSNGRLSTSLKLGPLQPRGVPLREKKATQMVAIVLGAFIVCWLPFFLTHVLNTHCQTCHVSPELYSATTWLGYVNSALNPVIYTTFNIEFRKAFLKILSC
T1 sequence (P14416 whole entry): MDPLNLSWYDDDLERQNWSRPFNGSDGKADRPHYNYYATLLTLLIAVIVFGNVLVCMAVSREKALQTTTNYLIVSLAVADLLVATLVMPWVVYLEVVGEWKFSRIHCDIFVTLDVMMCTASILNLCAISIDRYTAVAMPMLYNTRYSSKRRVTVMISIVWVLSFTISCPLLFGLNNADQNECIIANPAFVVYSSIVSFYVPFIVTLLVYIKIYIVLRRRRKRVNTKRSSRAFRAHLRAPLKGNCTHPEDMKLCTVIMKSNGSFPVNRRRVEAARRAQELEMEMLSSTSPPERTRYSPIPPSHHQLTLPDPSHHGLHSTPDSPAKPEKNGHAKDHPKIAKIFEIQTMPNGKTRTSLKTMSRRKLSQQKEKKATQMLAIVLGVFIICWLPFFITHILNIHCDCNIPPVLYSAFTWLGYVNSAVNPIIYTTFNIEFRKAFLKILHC
T5 sequence (P50406 whole entry): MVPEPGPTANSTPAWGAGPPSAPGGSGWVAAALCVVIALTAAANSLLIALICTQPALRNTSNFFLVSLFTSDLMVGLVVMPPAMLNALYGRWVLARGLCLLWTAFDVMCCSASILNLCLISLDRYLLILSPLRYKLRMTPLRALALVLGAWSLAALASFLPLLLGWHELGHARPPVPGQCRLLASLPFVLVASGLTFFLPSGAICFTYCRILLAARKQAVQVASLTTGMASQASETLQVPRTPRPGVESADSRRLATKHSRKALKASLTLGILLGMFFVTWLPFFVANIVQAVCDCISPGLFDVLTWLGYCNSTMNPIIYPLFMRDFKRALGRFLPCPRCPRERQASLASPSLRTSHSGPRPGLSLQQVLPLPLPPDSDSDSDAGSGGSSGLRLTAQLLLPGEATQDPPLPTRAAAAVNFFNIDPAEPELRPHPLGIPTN
T2 sequence (P34969 whole entry): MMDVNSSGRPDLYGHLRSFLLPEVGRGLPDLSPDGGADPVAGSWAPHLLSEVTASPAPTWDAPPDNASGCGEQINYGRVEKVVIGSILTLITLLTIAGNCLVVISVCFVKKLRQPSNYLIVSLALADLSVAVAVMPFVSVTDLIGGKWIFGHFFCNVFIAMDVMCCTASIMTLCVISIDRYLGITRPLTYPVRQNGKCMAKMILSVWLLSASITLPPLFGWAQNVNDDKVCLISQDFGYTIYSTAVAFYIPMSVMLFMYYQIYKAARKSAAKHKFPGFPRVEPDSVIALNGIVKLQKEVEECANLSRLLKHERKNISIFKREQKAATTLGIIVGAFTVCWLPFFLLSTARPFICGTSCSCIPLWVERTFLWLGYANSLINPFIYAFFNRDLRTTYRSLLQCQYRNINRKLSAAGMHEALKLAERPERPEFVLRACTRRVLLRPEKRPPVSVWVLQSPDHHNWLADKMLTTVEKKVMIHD

| SMILES | Ki (D(2) dopamine receptor [1]) | inhibition (D(2) dopamine receptor [2]) | inhibition (D(2) dopamine receptor [4]) | inhibition [5] | Activity [7] | Activity [9] | Activity (D(2) dopamine receptor [10]) | Ki [12] | inhibition [13] | Ki [14] | Ratio Ki [15] | Activity (D(2) dopamine receptor [16]) | inhibition [17] | Activity [18] | inhibition [19] | Ki [21] | Activity [22] | Activity [25] | Activity (Mus musculus [26]) | Activity [27] | also measured |
| --- | --- | --- | --- | --- | --- | --- | --- | --- | --- | --- | --- | --- | --- | --- | --- | --- | --- | --- | --- | --- | --- |
| Cn1c(=O)c2c(nc3n(CCCCCN4CCN(c5ccc(Cl)cc5)CC4)c(-c4ccccc4)cn23)n(C)c1=O | 0.009 µM | 16.5% | 75.6% | 22.1% | -7% | 9.1% | 3.1% | 0.093 µM | 34.7% | 0.122 µM | 0.7 | 7.7% | 71.8% | 1.9% | -8.4% | 0.045 µM | 2.3% | – | – | – | Activity (Mus musculus [3]): Active; minimal effective dose (Mus musculus [6]): 1.25 mg/kg; Ratio (Mus musculus [8]): 4; Activity (Mus musculus [11]): Non-toxic; Activity (Mus musculus [20]): 40%; Activity (Mus musculus [23]): inactive |
| Cn1c(=O)c2c(nc3n(CCCCN4CCN(c5ccccc5O)CC4)c(-c4ccccc4)cn23)n(C)c1=O | 0.004 µM | 45% | 77.8% | 64.3% | 23.4% | -2.2% | 19.2% | 0.006 µM | 104% | 0.03 µM | 0.2 | 28% | 82.4% | 4.5% | 7.7% | – | 37.4% | 39% | 17% | 7% | Activity (Mus musculus [24]): inactive; Activity [28]: 37%; Activity [29]: 42%; Activity [30]: 81%; Activity (Mus musculus [31]): Non-toxic; Activity [32]: 69%; Activity (Mus musculus [33]): Active |
| Cc1cccc(N2CCN(CCCCn3c(C)cn4c5c(=O)n(C)c(=O)n(C)c5nc34)CC2)c1C | 0.027 µM | 38.4% | 73.8% | – | 55.7% | – | 35.3% | < 0.001 µM | 105% | 0.381 µM | – | 37.6% | 102% | – | – | 0.51 µM | 61.5% | 34% | 20% | 42% | Activity (Mus musculus [34]): Active; Activity [28]: 68%; Activity (Mus musculus [35]): Non-toxic; Activity (Mus musculus [36]): Active; Activity [29]: 75%; Activity [30]: 43%; Activity (Mus musculus [37]): 67%; Activity [32]: 81%; Activity (Mus musculus [38]): Non-toxic |
